Results: US20230183193A1, “4-DIFLUOROMETHYL BENZOYL AMIDES WITH HERBICIDAL ACTION” (BAYER CROPSCIENCE AKTIENGESELLSCHAFT, priority 2017, published 2023)

What was measured:
Type in all cases: in vivo
Setaria viridis [1] = test: Pre-emergence herbicidal action, SETVI; conditions: dosage 320 g/ha, scored visually after 3 weeks vs untreated controls
How it was run: (§1)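 Weed seeds were laid out in sandy loam and covered with soil, then the soil surface was treated with an aqueous suspension or emulsion of the formulated compound containing 0.2% wetting agent. Pots stayed in the greenhouse for 3 weeks before damage was rated visually against untreated plants.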

Viola tricolor [2] = test: Pre-emergence herbicidal action, VIOTR; conditions: dosage 320 g/ha, scored visually after 3 weeks vs untreated controls
How it was run: as §1

Avena fatua [3] = test: Post-emergence herbicidal action, AVEFA; conditions: 80 g/ha, Table C
How it was run: (§2)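 Post-emergence spray; one-leaf stage (2–3 wk after sowing), sandy loam, greenhouse. WP/EC in water, 600 to […], +0.2% wetting agent. Visual % damage vs untreated at ~3 wk; 100% = plants dead.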

Pharbitis purpureum = test: Post-emergence herbicidal action, PHBPU; conditions: 80 g/ha, Table D
How it was run: as §2

Abutilon theophrasti [4] = test: Pre-emergence herbicidal action, ABUTH; conditions: dosage 320 g/ha, scored visually after 3 weeks vs untreated controls
How it was run: as §1

ECHCG = test: Post-emergence herbicidal action, ECHCG; conditions: 80 g/ha, Table C
How it was run: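 Weed and crop plants grown in sandy loam in the greenhouse, treated at the one-leaf stage 2–3 weeks after sowing. Damage scored visually after about 3 weeks vs untreated controls (0% = control, 100% = dead).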

Avena fatua [5] = test: Pre-emergence herbicidal action, AVEFA; conditions: dosage 320 g/ha, scored visually after 3 weeks vs untreated controls
How it was run: as §1

Alopecurus myosuroides [6] = test: Pre-emergence herbicidal action, ALOMY; conditions: dosage 320 g/ha, scored visually after 3 weeks vs untreated controls
How it was run: as §1

Viola tricolor [7] = test: Post-emergence herbicidal action, VIOTR; conditions: 80 g/ha, Table D
How it was run: as §2

Cyperus serotinus = test: Pre-emergence herbicidal action, CYPES; conditions: dosage 320 g/ha, scored visually after 3 weeks vs untreated controls
How it was run: as §1

Matricaria inodora = test: Pre-emergence herbicidal action, MATIN; conditions: dosage 320 g/ha, scored visually after 3 weeks vs untreated controls
How it was run: as §1

Amaranthus retroflexus [8] = test: Post-emergence herbicidal action, AMARE; conditions: 80 g/ha, Table D
How it was run: as §2

Alopecurus myosuroides [9] = test: Post-emergence herbicidal action, ALOMY; conditions: 80 g/ha, Table C
How it was run: as §2

Amaranthus retroflexus [10] = test: Pre-emergence herbicidal action, AMARE; conditions: dosage 320 g/ha, scored visually after 3 weeks vs untreated controls
How it was run: as §1

Stellaria media [11] = test: Post-emergence herbicidal action, STEME; conditions: 80 g/ha, Table D
How it was run: as §2

Abutilon theophrasti [12] = test: Post-emergence herbicidal action, ABUTH; conditions: 80 g/ha, Table D
How it was run: as §2

Stellaria media [13] = test: Pre-emergence herbicidal action, STEME; conditions: dosage 320 g/ha, scored visually after 3 weeks vs untreated controls
How it was run: as §1

Setaria viridis [14] = test: Post-emergence herbicidal action, SETVI; conditions: 80 g/ha, Table C
How it was run: as §2

Row | SMILES | herbicidal activity SETVI (Setaria viridis [1]) [%] | herbicidal activity VIOTR (Viola tricolor [2]) [%] | herbicidal activity AVEFA (Avena fatua [3]) [%] | Herbicidal activity PHBPU (Pharbitis purpureum) [%] | herbicidal activity ABUTH (Abutilon theophrasti [4]) [%] | Herbicidal activity ECHCG (ECHCG) [%] | herbicidal activity AVEFA (Avena fatua [5]) [%] | herbicidal activity ALOMY (Alopecurus myosuroides [6]) [%] | herbicidal activity VIOTR (Viola tricolor [7]) [%] | herbicidal activity CYPES (Cyperus serotinus) [%] | herbicidal activity MATIN (Matricaria inodora) [%] | herbicidal activity AMARE (Amaranthus retroflexus [8]) [%] | herbicidal activity ALOMY (Alopecurus myosuroides [9]) [%] | herbicidal activity AMARE (Amaranthus retroflexus [10]) [%] | Herbicidal activity STEME (Stellaria media [11]) [%] | herbicidal activity ABUTH (Abutilon theophrasti [12]) [%] | Herbicidal activity STEME (Stellaria media [13]) [%] | herbicidal activity SETVI (Setaria viridis [14]) [%]
1 | Cn1nnnc1NC(=O)c1ccc(C(F)F)c([S+](C)[O-])c1F (stereo not drawn) [Example 1-38] | 100 | 100 | 90 | 90 | 100 | 100 | 100 | 100 | 100 | 90 | 100 | 90 | 90 | 100 | 100 | 100 | 100 | 100
2 | CCSc1c(C(F)F)ccc(C(=O)Nc2nnnn2C)c1C [Example 1-4] | 100 | 100 | 100 | 100 | 100 | 100 | 100 | 100 | 100 | 80 | 100 | 100 | 90 | 100 | 100 | 100 | 100 | 100
3 | Cn1nnnc1NC(=O)c1ccc(C(F)F)c([S+](C)[O-])c1I (stereo not drawn) [Example 1-74] | 100 | 100 | 90 | 100 | 100 | 90 | 100 | 100 | 100 | 100 | 100 | 100 | 90 | 100 | 100 | 100 | 100 | 100
4 | CCc1c(C(=O)Nc2nnc(C)o2)ccc(C(F)F)c1S(C)(=O)=O [Example 7-13] | 100 | 100 | 100 | 100 | 100 | 100 | 100 | 100 | 100 | 100 | 100 | 100 | 90 | 100 | 100 | 100 | 100 | 100
5 | CC[S+]([O-])c1c(C(F)F)ccc(C(=O)Nc2nnc(C)o2)c1I (stereo not drawn) [Example 7-75] | 100 | 100 | 100 | 80 | 100 | 100 | 100 | 100 | 100 | 100 | 100 | 100 | 80 | 100 | 80 | 90 | 100 | 90
6 | Cn1nnnc1NC(=O)c1ccc(C(F)F)c([S+](C)[O-])c1Br (stereo not drawn) [Example 1-62] | 100 | 100 | 100 | 100 | 100 | 100 | 100 | 100 | 100 | 100 | 100 | 100 | 100 | 100 | 100 | 100 | 100 | 100
7 | CCn1nnnc1NC(=O)c1ccc(C(F)F)c(S(C)(=O)=O)c1Br [Example 2-63] | 100 | 100 | 100 | 100 | 100 | 100 | 100 | 100 | 100 | 90 | 100 | 100 | 100 | 100 | 100 | 100 | 100 | 100
8 | CCS(=O)(=O)c1c(C(F)F)ccc(C(=O)Nc2nnnn2C)c1C [Example 1-6] | 100 | 100 | 100 | 100 | 100 | 100 | 100 | 100 | 100 | 100 | 100 | 100 | 100 | 100 | 100 | 90 | 100 | 100
9 | CCS(=O)(=O)c1c(C(F)F)ccc(C(=O)Nc2ncnn2C)c1Cl [Example 4-54] | 90 | 100 | 100 | 100 | 100 | 100 | 80 | 90 | 100 | 80 | 100 | 90 | 90 | 100 | 100 | 90 | 100 | 100
10 | CC[S+]([O-])c1c(C(F)F)ccc(C(=O)Nc2nnnn2C)c1C (stereo not drawn) [Example 1-5] | 100 | 100 | 100 | 100 | 100 | 100 | 100 | 100 | 100 | 100 | 100 | 100 | 100 | 100 | 100 | 90 | 90 | 100
11 | CSc1c(C(F)F)ccc(C(=O)Nc2ncnn2C)c1Br [Example 4-61] | 100 | 100 | 100 | 100 | 100 | 100 | 90 | 100 | 100 | 90 | 100 | 100 | 100 | 100 | 100 | 100 | 90 | 100
